Assay results: publication PMC11940238, “Ru(II) Complexes with 3,4-Dimethylphenylhydrazine: Exploring In Vitro Anticancer Activity and Protein Affinities” (Biomolecules, 2025)

How the values were obtained:
[1] = system: MMP9; experiment: Gelatin gel electrophoresis of supernatants, MMP9 activity, MDA-MB-231; type: cell-based, human
Experimental: (§1) MDA-MB-231 and MIA PaCa-2 cells were treated with 50 µM of complex 2 or 75 µM and 100 µM of complex 1, respectively. The treatments lasted 24 and 48 h. Untreated cells were used as control. The supernatants were collected for further analysis. Electrophoresis in a polyacrylamide gel with an add-on of 0.1% SDS and 0.2% gelatin was used to measure metalloproteinase 2 and 9 activity (MMP2 and MMP9).
(§2) The gels were imaged with a ChemiDoc Imaging System (Bio-Rad Laboratories, Hercules, CA, USA) and estimated by densitometric scanning using the Image Lab (Bio-Rad Laboratories, Inc. Version 6.0.0.25) software tool.

[2] = system: MMP9; experiment: Gelatin gel electrophoresis of supernatants, MMP9 activity, MIA PaCa-2; type: cell-based, human
Experimental: as §1, §2

[3] = system: MIA PaCa-2 cells; experiment: MTT test; type: cell-based, human; settings: MIA PaCa-2, 24 h treatment
Experimental: (§3) The human breast cancer cell line (MDA-MB-231) and human pancreatic cancer cell line (MIA PaCa-2) were obtained from the American Type Culture Collection (ATCC). The cells were cultured in 25 cm^2 flasks with DMEM supplemented with 100 U/mL penicillin-streptomycin, 10% FBS, at 37 °C with 5% CO2 in a humidified incubator.
(§4) Cells were harvested when they reached 85–90% confluent. 100 µL of cell suspension (15.000 cells per well) was poured into the wells of the 96-well plate and incubated overnight to allow the cells to attach to the well. The cells were treated with 1 or 2 in concentrations ranging from 0.19 to 200 µM. Untreated cells were used as control. After 24 h, 10 µL MTT (5 mg/mL) was added to each well. Cultures were incubated for […] at 37 °C. The reduction process was stopped by adding 100 µL/well of 10% SDS acidified with 1N HCl. Dissolution of the resulting blue color was continued overnight in the incubator at 37 °C. All treatments were done in replicates of three. The absorbance was read at 540 nm on an ELISA reader (RT-6100, Rayto, Shenzhen, China). The ratio of absorbances of treated to untreated living cells was used to measure viability. Cytotoxic activity was recorded as IC50, which is the concentration necessary to reduce the absorbance of treated cells by 50% compared to the control.

[4] = system: MDA-MB-231 cells; experiment: MTT test; type: cell-based, human; settings: MDA-MB-231, 24 h treatment
Experimental: as §3, §4

[5] = target: T1, HSA (Homo sapiens, UniProt P02768); experiment: Spectrofluorimetric titration (fluorescence quenching) of HSA with the complexes; type: binding; settings: for ΔHb / ΔSb: van't Hoff plot, 300-310 K
Experimental: The excitation wavelength was set to 285 nm, while the emission spectrum was recorded in the interval from 315 nm to 600 nm. […] solution (phosphate buffer pH = 7.6) with a concentration of 5 × 10^−6 M was titrated (5–10 times) with a complex solutions (5 × 10^−4 M). Before each addition of complexes 1 and 2 to the HSA solutions, the cuvette was thermostated for 2 min for each tested temperature, and then the fluorescence quenching spectra of proteins were recorded. Recordings started 2 min after adding complex 1/complex 2 solutions to reach the desired temperature. The data were analyzed according to the double-log Stern-Volmer (SV) equation: (1) log(I0−IQ/IQ)=logKb+nlog[Q] where Kb and n are the binding constants and the number of binding sites per HSA molecule. The binding constants were determined from the intercept values on the SV diagrams and the double log SV equation (Table 1). These values are further used for van’t Hoff plots, lnKb = f(T^−1), from which the Gibbs free energy, enthalpy, and entropy changes were determined.

[6] = system: MDA-MB-231 cells; experiment: Examination of the cell cycle; type: cell-based, human; settings: MDA-MB-231, 24 h, p < 0.01
[7] = system: MMP2; experiment: Gelatin gel electrophoresis of supernatants, MMP2 activity, MDA-MB-231; type: cell-based, human; settings: MDA-MB-231, 75 µM complex 1 or 50 µM complex 2, 24 and 48 h treatments
Experimental: as §1, §2

[8] = system: MIA PaCa-2 cells; experiment: Examination of the cell cycle; type: cell-based, human; settings: MIA PaCa-2, 24 h
[9] = system: MMP2; experiment: Gelatin gel electrophoresis of supernatants, MMP2 activity, MIA PaCa-2; type: cell-based, human; settings: MIA PaCa-2, 100 µM complex 1 or 50 µM complex 2, 24 and 48 h treatments
Experimental: as §1, §2

[10] = Stability in PBS followed by UV-VIS spectroscopy; type: physicochemical; settings: 1 × 10^−4 M in PBS, 0-24 h
Text: Ligand precursor 3,4-dimethylphenylhydrazine hydrochloride (BLDPharm), [{RuCl2(η^6-p-cymene)}2] (Carbolutions), LiOH × H2O (Sigma Aldrich, Darmstadt, Germany), methanol (Carl Roth), diethyl ether (Carl Roth) and 2-propanol (Carl Roth) were obtained commercially and used without further purification. Deuterated solvents, CDCl3 and MeOD, were procured from Deuterosolvents GmbH and used for NMR spectroscopy. NMR spectra of the synthesized complexes, including ^1H (400.23 MHz) and ^13C NMR (100.1 MHz), were recorded using a Bruker Avance™ 400 MHz Spectrometer. Elemental analysis was performed and the Institute of Chemistry, Chemnitz University of Technology (Heraeus VARIO EL oven). The stability of compounds was examined by UV-VIS spectroscopy on a Thermo Scientific UV-VIS Spectrometer (Thermo Fisher Scientific, Waltham, MA, USA) between 800 and 200 nm. For this experiment, 1 × 10^−2 M solutions of complexes in DMSO were prepared and further diluted to 1 × 10^−4 M solutions in PBS. The measurements were repeated for 24 h.

[11] = system: HS-5 cells; experiment: MTT test on healthy cells; type: cell-based; settings: same concentrations as for cancer cells, 24 h
Experimental: as §4

[12] = target: T1, HSA; experiment: Spin-probing EPR: displacement of 16-DS from preformed HSA/16-DS; type: binding; settings: for Unbound Component Contribution (XUB, %): 50 µM HSA, 250 µM 16-DS, 200 µM complex ([HSA]:[Ru-complex] 1:4), 1.2% v/v DMSO, phosphate buffer pH 7.4, EPR spectral simulation
Experimental: In order to investigate the nature of the interaction between the two Ru-complexes and human serum albumin (HSA), spin-probing/electron paramagnetic resonance methodology was used additionally. Namely, as HSA can bind up to seven molecules of long-chain fatty acids, and their doxyl derivatives, which are EPR-active compounds, HSA was first incubated with the fivefold concentration of 16-doxyl-stearic acid (16-DS, Sigma-Aldrich), and subsequently the aliquots of the Ru-complexes solutions were added to the HSA/16-DS mixture. For this experiment, HSA was dissolved in the 100 mM phosphate buffer, pH 7.4, and its concentration was 0.2 mM. The ethanol solution of 16-DS was transferred to the bottom of the test tube, and ethanol was dried in the Eppendorf Concentrator plus vacuum centrifuge. After the ethanol completely evaporated, an appropriate amount of HSA solution was added to the tube containing 16-DS. The concentration of the 16-DS in HSA/16-DS solution was 1 mM, i.e., [HSA]:[16-DS] molar ratio was 1:5. This stock solution was incubated until the full binding of 16-DS to HSA was achieved. The incubation involved occasional gentle vortexing and thermostating at 37 °C in a water bath.
In the next step, Ru(II) complexes were dissolved in DMSO and diluted using 100 mM phosphate buffer, pH 7.4. The concentrations of both Ru(II) complexes stock solutions were 266.67 µM. Small volumes of these solutions were added to HSA/16-DS preparation and diluted with the phosphate buffer. Afterward, the samples were incubated for 30 min before the EPR measurement. […]
The samples prepared as previously described were aspirated into the capillary gas-permeable Teflon tubes (Zeus Industries, Inc., Orangeburg, SC, USA) and placed into the resonator cavity of the X-band EPR spectrometer Bruker Elexsys II E500. […] The acquired EPR spectra were analyzed using the Bruker Xepr software and simulated by SimLabel, a graphical user interface software that is an extension of EasySpin [64], the EPR simulation package (the version of EasySpin used was 6.0.6). […]

[13] = system: MIA PaCa-2 cells; experiment: Malondialdehyde and protein carbonyl concentrations in the medium; type: cell-based, human; settings: MIA PaCa-2, 24 h, 100 µM complex 1 or 50 µM complex 2, vs control
Experimental: (§5) MDA-MB-231 and MIA PaCa-2 cells were treated with 50 µM of complex 2 or 75 µM and 100 µM of complex 1, respectively, for 24 h. Untreated cells were used as control. The supernatants were collected and used for further analyses. Lipid peroxidation was estimated by a spectrophotometric assay based on the absorption maximum of the malondialdehyde (MDA) complex with thiobarbituric acid in an acidic environment and high temperature. 1,1,3,3-Tetramethoxypropane was used as standard. Absorbance was read on the ELISA reader using a 540 nm filter. The concentration was determined using a standard curve. The determination of protein carbonyl (PC) concentration was based on the method of Levin and associates. Absorbance was read on the ELISA reader using a 375 nm filter.

[14] = system: MDA-MB-231 cells; experiment: as above; type: cell-based, human; settings: MDA-MB-231, 24 h, 75 µM complex 1 or 50 µM complex 2, vs untreated cells
Experimental: as §5

[15] = system: Bovine Serum Albumin (BSA); settings: cited from earlier work

T1 sequence (P02768 25-609): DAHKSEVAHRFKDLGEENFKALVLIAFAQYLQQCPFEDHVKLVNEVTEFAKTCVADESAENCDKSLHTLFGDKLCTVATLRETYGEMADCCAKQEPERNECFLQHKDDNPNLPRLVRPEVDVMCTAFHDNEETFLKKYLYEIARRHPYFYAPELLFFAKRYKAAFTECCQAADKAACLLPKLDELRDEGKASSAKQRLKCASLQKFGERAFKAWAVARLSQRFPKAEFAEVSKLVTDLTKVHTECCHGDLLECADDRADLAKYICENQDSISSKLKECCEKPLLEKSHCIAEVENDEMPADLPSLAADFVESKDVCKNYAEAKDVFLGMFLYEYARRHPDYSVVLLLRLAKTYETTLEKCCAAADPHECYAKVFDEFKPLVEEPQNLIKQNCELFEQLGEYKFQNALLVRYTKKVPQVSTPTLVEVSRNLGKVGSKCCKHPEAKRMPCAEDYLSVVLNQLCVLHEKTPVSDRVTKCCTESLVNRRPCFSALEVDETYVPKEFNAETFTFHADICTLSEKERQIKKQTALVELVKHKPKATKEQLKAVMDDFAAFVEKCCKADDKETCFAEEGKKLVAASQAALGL

Dichlorido(η^6-p-cymene)(3,4-dimethylphenylhydrazine-κN)ruthenium(II) [complex 1]
MMP9 activity ([1]; MDA-MB-231, 75 µM complex 1, after 48 h, compared to control and 24 h treatment (p < 0.01)): significantly lower
MMP9 activity ([2]; MIA PaCa-2, 100 µM complex 1, after 48 h, compared to control and 24 h treatment (p < 0.05)): significantly lower
IC50 [3]: 100 µM
IC50 [4]: 75 µM
change in Gibbs binding energy, range over the examined temperatures ([5]; 27-37 °C): −28.3 to −34.2 kJ mol^−1
n (number of binding sites) ([5]; 300 K): 1.05
ΔGb ([5]; 300 K): -6.76 kcal/mol
n (number of binding sites) ([5]; 305 K): 1.10
ΔGb ([5]; 305 K): -7.46 kcal/mol
n (number of binding sites) ([5]; 310 K): 1.21
ΔGb ([5]; 310 K): -8.17 kcal/mol
ΔHb [5]: 35.8 kcal/mol
ΔSb [5]: 590 J mol^−1 K^−1
number of cells in the G0/G1 phase [6]: significantly decreased
number of cells in the S phase [6]: increased
MMP2 activity [7]: No changes
effect on the cell cycle [8]: did not affect
MMP2 activity [9]: No changes
time-dependent UV-VIS spectra (stability) [10]: monoexponential decrease in absorbance due to the hydrolysis
viability of HS-5 cells [11]: did not affect the viability
Unbound Component Contribution (XUB, %) [12]: 0.73 ± 0.02%
Ihf/Ilf parameter (amplitude ratio of high-field and low-field peaks) ([12]; [HSA]:[Ru-complex] 1:0.5 to 1:4, qualitative): more pronounced increase
MDA concentration in the medium [13]: significantly reduced
PC concentration in the medium [13]: increased
MDA concentration in the medium [14]: reduces
PC concentration in the medium [14]: reduces MDA concentration but not PC

Cc1ccc(C(C)C)cc1.Cc1ccc(C(C)C)cc1.Cc1ccc(NN)cc1C.[Cl-].[Cl][Ru].[Cl][Ru][Cl] [complex 2, Chlorido(μ-chlorido)(η^6-p-cymene)(μ-3,4-dimethylphenylhydrazine-κ^2N,N′)ruthenium(II)-dimer chloride]
MMP9 activity ([1]; MDA-MB-231, 50 µM complex 2, 24 and 48 h treatments): did not affect
MMP9 activity ([2]; MIA PaCa-2, 50 µM complex 2, 24 and 48 h treatments): did not affect
IC50 [3]: 50 µM
IC50 [4]: 50 µM
n (number of binding sites) ([5]; 300 K): 1.00
ΔGb ([5]; 300 K): -6.12 kcal/mol
n (number of binding sites) ([5]; 305 K): 1.03
ΔGb ([5]; 305 K): -6.55 kcal/mol
n (number of binding sites) ([5]; 310 K): 1.09
ΔGb ([5]; 310 K): -6.96 kcal/mol
ΔHb [5]: 18.9 kcal/mol
ΔSb [5]: 348 J mol^−1 K^−1
number of cells in the G0/G1 phase [6]: significantly decreased
number of cells in the S phase [6]: increased
MMP2 activity [7]: No changes
effect on the cell cycle [8]: did not affect
MMP2 activity [9]: No changes
time-dependent UV-VIS spectra (stability) [10]: gradual increase in absorbance
viability of HS-5 cells [11]: did not affect the viability
Unbound Component Contribution (XUB, %) [12]: 0.71 ± 0.02%
MDA concentration in the medium [13]: significantly reduced
PC concentration in the medium [13]: decreased
MDA concentration in the medium [14]: increased
PC concentration in the medium [14]: decreased

Cc1ccc(C(C)C)cc1.O=[N+]([O-])c1cccc([NH+]2[NH2+][Ru-]2[Cl])c1 (stereo not drawn) [[RuCl(η^6-p-cymene)(3-DNPH)], chlorido(η^6-p-cymene)(3-nitrophenylhydrazine-k^2N,N’)ruthenium(II)]
sign of the change in enthalpy and entropy of binding [15]: positive values
